Measurements taken from PubChem BioAssay AID1745844 (Carcinogenic Potency Database (CPDB), 2022).
“And” between values parts separate entries of the source, which are not always exact repeats. Identical values can stand only once. The source made the active and inactive calls. No rule for the calls is given here.

System: rodent lifetime carcinogenesis bioassay, tumor incidence TD50
Assay: chronic cancer bioassays in animals – CPDB, compiled studies (AID 1745844)

## CC(Cl)CCl (centres undefined)
mouse, strain B6C3F1, females, by gavage, site: any site (literature study), lesion: several types, types named in the paper, dosed 103 weeks, study length 105 weeks
  TD50: 341 mg/kg/day
mouse, strain B6C3F1, females, by gavage, site: forestomach, lesion: squamous-cell carcinoma + squamous-cell papilloma, dosed 103 weeks, study length 105 weeks
  TD50: 1020 mg/kg/day
mouse, strain B6C3F1, females, by gavage, site: liver, lesion: hepatocellular adenoma + hepatocellular carcinoma + neoplastic nodule, dosed 103 weeks, study length 105 weeks
  TD50: 346 mg/kg/day
mouse, strain B6C3F1, females, by gavage, site: liver, lesion: hepatocellular adenoma + hepatocellular carcinoma, dosed 103 weeks, study length 105 weeks
  TD50: 346 mg/kg/day
mouse, strain B6C3F1, females, by gavage, site: liver, lesion: hepatocellular adenoma, dosed 103 weeks, study length 105 weeks
  TD50: 562 mg/kg/day
mouse, strain B6C3F1, males, by gavage, site: any site (literature study), lesion: several types, types named in the paper, dosed 103 weeks, study length 105 weeks
  TD50: 397 mg/kg/day
mouse, strain B6C3F1, males, by gavage, site: forestomach, lesion: squamous-cell papilloma, dosed 103 weeks, study length 105 weeks
  TD50: 1520 mg/kg/day
mouse, strain B6C3F1, males, by gavage, site: liver, lesion: hepatocellular adenoma + hepatocellular carcinoma + neoplastic nodule, dosed 103 weeks, study length 105 weeks
  TD50: 229 mg/kg/day
mouse, strain B6C3F1, males, by gavage, site: liver, lesion: hepatocellular adenoma + hepatocellular carcinoma, dosed 103 weeks, study length 105 weeks
  TD50: 229 mg/kg/day
mouse, strain B6C3F1, males, by gavage, site: liver, lesion: hepatocellular adenoma, dosed 103 weeks, study length 105 weeks
  TD50: 384 mg/kg/day
mouse, strain B6C3F1, males, by gavage, site: lung, lesion: alveolar/bronchiolar adenoma + alveolar/bronchiolar carcinoma, dosed 103 weeks, study length 105 weeks
  TD50: 5070 mg/kg/day
rat, strain Fischer 344, females, by gavage, site: any site (literature study), lesion: several types, types named in the paper, dosed 103 weeks, study length 105 weeks
  TD50: 240 mg/kg/day
rat, strain Fischer 344, females, by gavage, site: mammary gland, lesion: adenocarcinoma, NOS, dosed 103 weeks, study length 105 weeks
  TD50: 767 mg/kg/day
rat, strain Fischer 344, males, by gavage, site: any site (literature study), lesion: several types, types named in the paper, dosed 103 weeks, study length 106 weeks
  TD50: 69.7 mg/kg/day (inactive)
rat, strain Fischer 344, males, by gavage, site: liver, lesion: hepatocellular adenoma + hepatocellular carcinoma + neoplastic nodule, dosed 103 weeks, study length 106 weeks
  TD50: 2570 mg/kg/day

## CCCN=[N+]([O-])CCC
rat, strain Sprague-Dawley, males, by gavage, site: liver, lesion: hepatocellular carcinoma, dosed 26 weeks, study length 77 weeks
  TD50: 0.00736 mg/kg/day
rat, strain Sprague-Dawley, males, by gavage, site: nasal cavity, lesion: esthesioneuroepithelioma, dosed 26 weeks, study length 77 weeks
  TD50: 0.000723 mg/kg/day
rat, strain Sprague-Dawley, males, by gavage, site: nasal cavity, lesion: papilloma, dosed 26 weeks, study length 77 weeks
  TD50: 0.00736 mg/kg/day
rat, strain Sprague-Dawley, males, by gavage, site: nasal cavity, lesion: several types, types named in the paper, dosed 26 weeks, study length 77 weeks
  TD50: 0.000596 mg/kg/day
rat, strain Sprague-Dawley, males, by gavage, site: skin, lesion: keratoacanthoma, dosed 26 weeks, study length 77 weeks
  TD50: 0.00038 mg/kg/day
rat, strain Sprague-Dawley, males, by gavage, site: skin, lesion: several types, types named in the paper, dosed 26 weeks, study length 77 weeks
  carcinogen call: positive

## CCOc1ccc(NC(=O)CC(C)O)cc1 (centres undefined)
mouse, strain B6C3F1, females, in feed, site: liver, lesion: hepatocellular adenoma, dosed 72 weeks, study length 84 weeks
  TD50: 4000 mg/kg/day
mouse, strain B6C3F1, females, in feed, site: lung, lesion: alveolar-cell tumor, dosed 72 weeks, study length 84 weeks
  TD50: 11300 mg/kg/day
mouse, strain B6C3F1, males, in feed, site: all sites, lesion: lymphoma and leukemia, combined, dosed 70 weeks, study length 84 weeks
  TD50: 2740 mg/kg/day
mouse, strain B6C3F1, males, in feed, site: kidney, lesion: renal-cell adenoma, dosed 70 weeks, study length 84 weeks
  TD50: 5580 mg/kg/day
mouse, strain B6C3F1, males, in feed, site: kidney, lesion: renal-cell carcinoma, dosed 70 weeks, study length 84 weeks
  TD50: 5530 mg/kg/day
mouse, strain B6C3F1, males, in feed, site: liver, lesion: hemangioma, dosed 70 weeks, study length 84 weeks
  TD50: 406000 mg/kg/day
mouse, strain B6C3F1, males, in feed, site: liver, lesion: hepatocellular adenoma, dosed 70 weeks, study length 84 weeks
  TD50: 17500 mg/kg/day
mouse, strain B6C3F1, males, in feed, site: lung, lesion: alveolar-cell tumor, dosed 70 weeks, study length 84 weeks
  TD50: 5280 mg/kg/day
mouse, strain B6C3F1, males, in feed, site: urinary bladder, lesion: papilloma, dosed 70 weeks, study length 84 weeks
  TD50: 46400 mg/kg/day

## CS(=O)(=O)OCCCNCCCOS(C)(=O)=O
mouse, strain B6C3F1, females, i.p., site: any site (literature study), lesion: several types, types named in the paper, dosed 52 weeks, study length 86 weeks
  TD50: 1.17 mg/kg/day (inactive)
mouse, strain B6C3F1, females, i.p., site: lung, lesion: alveolar/bronchiolar adenoma + alveolar/bronchiolar carcinoma, dosed 52 weeks, study length 86 weeks
  TD50: 6.88 mg/kg/day
mouse, strain B6C3F1, males, i.p., site: all sites, lesion: lymphoma, dosed 52 weeks, study length 78 weeks
  TD50: 37.7 mg/kg/day (inactive)
mouse, strain B6C3F1, males, i.p., site: any site (literature study), lesion: several types, types named in the paper, dosed 52 weeks, study length 78 weeks
  TD50: 2.07 mg/kg/day
rat, strain Sprague-Dawley, females, i.p., site: any site (literature study), lesion: several types, types named in the paper, dosed 36 weeks, study length 80 weeks
  TD50: 0.616 mg/kg/day
rat, strain Sprague-Dawley, females, i.p., site: liver, lesion: hepatocellular adenoma + hepatocellular carcinoma + neoplastic nodule, dosed 36 weeks, study length 80 weeks
  TD50: 5.01 mg/kg/day
rat, strain Sprague-Dawley, females, i.p., site: peritoneum, lesion: fibrosarcoma + sarcoma, NOS, dosed 36 weeks, study length 80 weeks
  TD50: 2.74 mg/kg/day
rat, strain Sprague-Dawley, males, i.p., site: any site (literature study), lesion: several types, types named in the paper, dosed 36 weeks, study length 80 weeks
  TD50: 1.3 mg/kg/day
rat, strain Sprague-Dawley, males, i.p., site: peritoneum, lesion: fibrosarcoma + fibroma + sarcoma, NOS, dosed 36 weeks, study length 80 weeks
  TD50: 0.915 mg/kg/day

## CC(O)c1ccccc1 (centres undefined)
mouse, strain B6C3F1, females, by gavage, site: any site (literature study), lesion: several types, types named in the paper, dosed 103 weeks, study length 104 weeks
  carcinogen call: negative (inactive)
mouse, strain B6C3F1, males, by gavage, site: any site (literature study), lesion: several types, types named in the paper, dosed 103 weeks, study length 104 weeks
  TD50: 2230 mg/kg/day (inactive)
rat, strain Fischer 344, females, by gavage, site: any site (literature study), lesion: several types, types named in the paper, dosed 103 weeks, study length 104 weeks
  TD50: 826 mg/kg/day
rat, strain Fischer 344, females, by gavage, site: liver, lesion: hepatocellular adenoma + hepatocellular carcinoma + neoplastic nodule, dosed 103 weeks, study length 104 weeks
  TD50: 8630 mg/kg/day
rat, strain Fischer 344, females, by gavage, site: pancreatic islets, lesion: islet-cell adenoma, dosed 103 weeks, study length 104 weeks
  TD50: 2300 mg/kg/day (inactive)
rat, strain Fischer 344, males, by gavage, site: adrenal medulla, lesion: pheochromocytoma + pheochromocytoma, malignant, dosed 103 weeks, study length 104 weeks
  TD50: 135 mg/kg/day
rat, strain Fischer 344, males, by gavage, site: any site (literature study), lesion: several types, types named in the paper, dosed 103 weeks, study length 104 weeks
  TD50: 88.6 mg/kg/day
rat, strain Fischer 344, males, by gavage, site: kidney, lesion: tubular-cell adenoma + tubular-cell adenocarcinoma, dosed 103 weeks, study length 104 weeks
  TD50: 458 mg/kg/day and 944 mg/kg/day
rat, strain Fischer 344, males, by gavage, site: kidney, lesion: tubular-cell adenoma, dosed 103 weeks, study length 104 weeks
  TD50: 984 mg/kg/day and 564 mg/kg/day
rat, strain Fischer 344, males, by gavage, site: liver, lesion: hepatocellular adenoma + hepatocellular carcinoma + neoplastic nodule, dosed 103 weeks, study length 104 weeks
  TD50: 4800 mg/kg/day
rat, strain Fischer 344, males, by gavage, site: lung, lesion: alveolar/bronchiolar adenoma + alveolar/bronchiolar carcinoma, dosed 103 weeks, study length 104 weeks
  TD50: 1050 mg/kg/day
rat, strain Fischer 344, males, by gavage, site: preputial gland, lesion: carcinoma, NOS, dosed 103 weeks, study length 104 weeks
  TD50: 1270 mg/kg/day
rat, strain Fischer 344, males, by gavage, site: testis, lesion: interstitial-cell tumor, dosed 103 weeks, study length 104 weeks
  TD50: 51.5 mg/kg/day

## Clc1ccc(C(c2ccc(Cl)cc2)C(Cl)Cl)cc1
mouse, strain B6AKF1, females, oral dosing, site: any site (literature study), lesion: several types, types named in the paper, dosed 76 weeks, study length 76 weeks
  TD50: 37.4 mg/kg/day
mouse, strain B6AKF1, females, oral dosing, site: lung, lesion: adenoma, dosed 76 weeks, study length 76 weeks
  TD50: 73 mg/kg/day
mouse, strain B6AKF1, males, oral dosing, site: any site (literature study), lesion: several types, types named in the paper, dosed 76 weeks, study length 76 weeks
  TD50: 49 mg/kg/day
mouse, strain B6AKF1, males, oral dosing, site: lung, lesion: adenoma, dosed 76 weeks, study length 76 weeks
  TD50: 82.9 mg/kg/day
mouse, strain B6C3F1, females, in feed, site: any site (literature study), lesion: several types, types named in the paper, dosed 78 weeks, study length 90 weeks
  TD50: 108 mg/kg/day (inactive)
mouse, strain B6C3F1, females, in feed, site: liver, lesion: hepatocellular adenoma + hepatocellular carcinoma + neoplastic nodule, dosed 78 weeks, study length 90 weeks
  TD50: 493 mg/kg/day
mouse, strain B6C3F1, females, oral dosing, site: any site (literature study), lesion: several types, types named in the paper, dosed 76 weeks, study length 76 weeks
  TD50: 250 mg/kg/day
mouse, strain B6C3F1, females, oral dosing, site: lung, lesion: adenoma, dosed 76 weeks, study length 76 weeks
  TD50: 250 mg/kg/day
mouse, strain B6C3F1, males, in feed, site: any site (literature study), lesion: several types, types named in the paper, dosed 78 weeks, study length 90 weeks
  TD50: 997 mg/kg/day (inactive)
mouse, strain B6C3F1, males, in feed, site: liver, lesion: hepatocellular adenoma + hepatocellular carcinoma + neoplastic nodule, dosed 78 weeks, study length 90 weeks
  TD50: 116 mg/kg/day
mouse, strain B6C3F1, males, oral dosing, site: any site (literature study), lesion: several types, types named in the paper, dosed 76 weeks, study length 76 weeks
  TD50: 34.8 mg/kg/day
mouse, strain B6C3F1, males, oral dosing, site: liver, lesion: hepatoma, dosed 76 weeks, study length 76 weeks
  TD50: 43.3 mg/kg/day
mouse, strain B6C3F1, males, oral dosing, site: lung, lesion: adenoma, dosed 76 weeks, study length 76 weeks
  TD50: 120 mg/kg/day
mouse, strain CF-1, females, in feed, site: any site (literature study), lesion: several types, types named in the paper, dosed 123 weeks, study length 123 weeks
  TD50: 67.1 mg/kg/day
mouse, strain CF-1, females, in feed, site: liver, lesion: hepatoma, dosed 123 weeks, study length 123 weeks
  TD50: 4830 mg/kg/day (inactive)
mouse, strain CF-1, females, in feed, site: lung, lesion: several types, types named in the paper, dosed 123 weeks, study length 123 weeks
  TD50: 39.9 mg/kg/day
mouse, strain CF-1, males, in feed, site: any site (literature study), lesion: several types, types named in the paper, dosed 123 weeks, study length 123 weeks
  TD50: 33.2 mg/kg/day
mouse, strain CF-1, males, in feed, site: liver, lesion: hepatoma, dosed 123 weeks, study length 123 weeks
  TD50: 86.8 mg/kg/day
mouse, strain CF-1, males, in feed, site: lung, lesion: several types, types named in the paper, dosed 123 weeks, study length 123 weeks
  TD50: 24.9 mg/kg/day
rat, strain Osborne-Mendel, females, in feed, site: any site (literature study), lesion: several types, types named in the paper, dosed 78 weeks, study length 111 weeks
  carcinogen call: negative (inactive)
rat, strain Osborne-Mendel, females, in feed, site: liver, lesion: hepatocellular adenoma + hepatocellular carcinoma + neoplastic nodule, dosed 78 weeks, study length 111 weeks
  TD50: 2080 mg/kg/day
rat, strain Osborne-Mendel, males, in feed, site: any site (literature study), lesion: several types, types named in the paper, dosed 78 weeks, study length 111 weeks
  TD50: 82.6 mg/kg/day
rat, strain Osborne-Mendel, males, in feed, site: thyroid gland, lesion: follicular-cell adenoma + follicular-cell carcinoma, dosed 78 weeks, study length 111 weeks
  TD50: 75.8 mg/kg/day

## CCCCNC(=O)NS(=O)(=O)c1ccc(C)cc1
mouse, strain B6C3F1, females, in feed, site: any site (literature study), lesion: several types, types named in the paper, dosed 78 weeks, study length 103 weeks
  TD50: 24200 mg/kg/day (inactive)
mouse, strain B6C3F1, males, in feed, site: any site (literature study), lesion: several types, types named in the paper, dosed 78 weeks, study length 102 weeks
  carcinogen call: negative (inactive)
rat, strain Fischer 344, females, in feed, site: any site (literature study), lesion: several types, types named in the paper, dosed 78 weeks, study length 106 weeks
  carcinogen call: negative (inactive)
rat, strain Fischer 344, males, in feed, site: any site (literature study), lesion: several types, types named in the paper, dosed 78 weeks, study length 106 weeks
  carcinogen call: negative (inactive)
